Measurements taken from patent publication US6747041B1, “Heterocyclic dicarboxylic acid diamide derivatives, agricultural/horticultural insecticides and method of using the same” (Nihon Nohyaku Co., Ltd., priority 1999, dated 2004).

melting point [°C]	Compound
164 to 166	Cc1cc(C(F)(C(F)(F)F)C(F)(F)F)ccc1NC(=O)c1nn(-c2ccccc2)c(Br)c1C(=O)NC(C)C
108 to 110	Cc1cc(C(F)(C(F)(F)F)C(F)(F)F)ccc1NC(=O)c1ccc[n+]([O-])c1C(=O)NC(C)C
